The values below come from patent US7105229B2, “Coated particles, methods of making and using” (priority 1997, dated 2006).

A short description of the series: Solubilization of Paclitaxel in nanostructured phase interior. The series is classed as physicochemical. As for the experimental part: A nanostructured liquid phase containing the antineoplastic drug Paclitaxel was prepared by solubilizing 0.045 grams of Paclitaxel, 0.57 grams of eugenol, […] of soy lecithin (Epikuron 200), 0.33 grams of glycerol, and 0.06 grams of cupric nitrate with 0.61 grams of methanol, and then evaporating off the methanol in an evaporating dish, with stirring during evaporation. An glycerol-rich upper solution was prepared by dissolving 0.09 grams of potassium iodide, 0.05 grams of Pluronic F-68, 0.44 grams of water and 1.96 grams of glycerol. After overlaying the upper phase, the system was sonicated, resulting in the dispersing of Paclitaxel-containing, nanostructured liquid phase into microparticles coated with crystalline iodine. […] The loading of Paclitaxel in the particle interior was quite high, namely on the order of 3 wt %, which in this case was so high that precipitation of some of the Paclitaxel within the interior of each particle may occur since the solubilization of Paclitaxel in this cubic phase at this high loading was metastable. […]

As to `CC(=O)O[C@H]1C(=O)[C@@]2(C)[C@H]([C@H](OC(=O)c3ccccc3)[C@]3(O)C[C@H](OC(=O)[C@H](O)[C@@H](NC(=O)c4ccccc4)c4ccccc4)C(C)=C1C3(C)C)[C@]1(OC(C)=O)CO[C@@H]1C[C@@H]2O` [Paclitaxel], where the note is “eugenol/soy lecithin/glycerol nanostructured phase of Example 36”, the “concentration of Paclitaxel in the interior at which solubilization is truly stable (thermodynamic equilibrium)” value was no more than 0.7%. The “time taken for precipitation of Paclitaxel at metastable loading” value (loading on the order of 3 wt % of interior) is reported as “hours or even days”.
